Reference: PMC9895061 (Signal Transduction and Targeted Therapy, 2023)
Read-outs that look alike come from different tables or passages of the source.

What was measured:
SW620 cells = experiment: Cell viability by trypan blue staining, SW620; details: for viability at 0.5 µM: Homo sapiens, SW-620, 24 h, read-out: cells viability, SW620
Experimental: (§1) Total cell number and viability were counted with trypan blue staining. To measure apoptosis, cells were harvested and followed by flow cytometric analysis using the Annexin V-FITC / PI apoptosis detection kit according to the manufacturer’s protocol. Cell apoptosis was analyzed by FlowJo software.
(§2) e, f Cell viability were measured by trypan-blue staining.

gNS SW620 cells = experiment: Proliferation IC50 in scrambled (gNS) SW620 cells; format: cell-based; details: Homo sapiens, SW-620, 24 h, read-out: IC50 against the proliferation of scrambled (gNS) SW620 cells
Experimental: To generate PRDX1 knockdown cell lines, gRNA targeting […] was cloned into the vector pHBLV-U6-gRNA-EF1-CAS9-PURO from HanBio. The gRNA, psPAX2, and pMD2·G plasmids were mixed and co-transfected into HEK293T cells using Lipofectamine 2000 (Thermo Fisher Scientific). Medium with lentiviruses was collected and filtered through 0.45 μm filters at 48 h after transfection. Lentiviruses was used to infect the indicated cells with 8 μg/mL polybrene (Sigma-Aldrich) for 2 days. The infected cells were selected in medium containing 2 μg/mL puromycin (Sigma-Aldrich) for 3 days, and PRDX1 protein expression level were examined by western blot.
SW620 or HCT116 cells were seeded into 96-well plate overnight at 5000 cells per well or 4000 cells per well respectively. […] Cell numbers were assessed using the CCK-8 reagent at OD 450. The IC50 values were calculated by fitting the data points with the dose-response function in GraphPad.

HCT116 cells = experiment: Cell viability by trypan blue staining, HCT116; details: for viability at 0.5 µM: Homo sapiens, HCT-116, 24 h, read-out: cells viability, HCT116
Experimental: as §1, §2

PRDX3 = target: T1, PRDX3 (Homo sapiens, UniProt P30048); experiment: Trx-TrxR-NADPH coupling peroxiredoxin activity assay, PRDX3; format: biochemical
T1 sequence (P30048 62-256): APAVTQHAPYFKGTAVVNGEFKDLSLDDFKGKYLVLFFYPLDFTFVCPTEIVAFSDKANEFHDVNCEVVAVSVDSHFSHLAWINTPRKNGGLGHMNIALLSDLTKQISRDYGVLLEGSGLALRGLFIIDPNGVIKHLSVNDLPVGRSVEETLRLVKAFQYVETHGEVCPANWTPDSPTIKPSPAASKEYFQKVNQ

PRDX1 [1] = target: T2, PRDX1 (Homo sapiens, UniProt Q06830); experiment: Trx-TrxR-NADPH coupling peroxiredoxin activity assay, PRDX1; format: biochemical
T2 sequence (Q06830 1-199): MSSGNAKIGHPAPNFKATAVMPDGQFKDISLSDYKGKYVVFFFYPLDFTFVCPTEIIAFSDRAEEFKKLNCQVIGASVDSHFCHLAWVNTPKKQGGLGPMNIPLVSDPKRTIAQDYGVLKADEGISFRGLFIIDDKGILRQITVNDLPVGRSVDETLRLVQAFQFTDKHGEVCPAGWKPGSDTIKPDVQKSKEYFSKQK

[2] = target: T3, recombinant wild type PRDX1 (Homo sapiens, UniProt Q06830); experiment: Surface plasmon resonance (SPR) assay; format: binding
T3 sequence (Q06830 1-199): T2 sequence (Q06830 1-199)

PRDX1 [3] = target: T2, PRDX1; experiment: Determination of Kinact and Ki for inhibition of PRDX1's peroxidase activity; format: biochemical
nude mice = experiment: Chronic toxicity test, routine blood test; details: 2 mg/kg, 5 days per week for two weeks

Row | SMILES | cell viability at high concentrations, SW620 (in words) (SW620 cells; 1, 2 μM, 24 h, trypan blue) | viability at 0.5 µM (SW620 cells) | IC50 (gNS SW620 cells) | cell viability at high concentrations, HCT116 (in words) (HCT116 cells; 1, 2 μM, 24 h, trypan blue) | viability at 0.5 µM (HCT116 cells) | inhibition of the peroxidase activity of PRDX3 (in words) (PRDX3; recombinant PRDX3) | IC50 (PRDX3; recombinant PRDX3, 1.5 h incubation, mean ± SEM, triplicate, read-out: IC50 against the peroxidase activity of PRDX3) | IC50 (PRDX1 [1]) | Kd [2] | Ki (PRDX1 [3]) | count and proportion of monocyte and neutrophil, routine blood test (in words) (nude mice) | IC50 (PRDX3)
1 | COC(=O)[C@H](C)NC(=O)N[C@]1(C)CC[C@]2(C)CC[C@]3(C)C4=CC=C5C(=CC(=O)C(O)=C5C)[C@]4(C)CC[C@@]3(C)[C@@H]2C1 [19-048, Methyl (((2R,4aS,6aS,12bR,14aS,14bR)-10-hydroxy-2,4a,6a,9,12b,14a-hexamethyl-11-oxo-1,2,3,4,4a,5,6,6a,11,12b,13,14,14a,14b-tetradecahydropicen-2-yl)carbamoyl)-L-alaninate] | significantly decreased cell viability | ~80% | 0.529 ± 0.00669 µM | significantly decreased cell viability | ~80% | no obvious inhibition | > 100 µM | – | – | – | – | –
2 | CC1=C(O)C(=O)C=C2C1=CC=C1[C@@]2(C)CC[C@@]2(C)[C@@H]3C[C@](C)(C(=O)O)CC[C@]3(C)CC[C@]12C [Celastrol, reference compound] | – | ~80% | 0.634 ± 0.0113 µM | – | ~80% | – | – | 0.29 ± 0.01 µM | 0.36 µM | 0.95 ± 0.086 µM | higher than the reference intervals | 6.67 ± 0.52 µM
